Laboratory results published in BindingDB's records for doi:10.7270/Q2RB7317 (Nmmlsc, 2009).
pKi: −log10 of the molar value.

The compounds below were run against Ras-related C3 botulinum toxin substrate 1 (Mus musculus, UniProt P63001) (assay: wildtype Rac1 GTP binding inhibitors, SAR follow-up, biochemical, additional analogs, multiplex bead flow cytometry (AID 2040)).

Going from `O=C1NC(=O)/C(=C2/C(=O)Nc3ccccc32)N1` to `O=C1NC(=S)N/C1=C1\C(=O)Nc2ccccc21` [(3Z)-3-(5-oxo-2-sulfanylideneimidazolidin-4-ylidene)-1H-indol-2-one], the pKi rises from 6.60 to 6.80 (0.20 log units).

Compared with `O=C1Nc2ccc(Br)cc2C1=C1Nc2ccccc2C1=O`, `O=C1Nc2c(F)cccc2C1=C1Nc2ccccc2C1=O` is 0.33 log units lower in pKi: 5.82 for the first, 5.49 for the second.
